Series [1] deals with MRSA (G+) strain ATCC 43300. Briefly: Antimicrobial growth inhibition (CO-ADD), MRSA. It counts as cell-based, Staphylococcus aureus. The procedure: (§1) Compounds 1−3 and 5−12 were assayed against a selection of medically important pathogenic microorganisms (MRSA, E. coli, K. pneumoniae, A. baumanii, P. aeruginosa, C. albicans, C. neoformans), Table 4. […] To the best of our knowledge this compound had not been tested against any drug resistant strain of Gram-positive bacterium until this study.
(§2) The antimicrobial activity testing was performed by the Community for Antimicrobial Drug Discovery (CO-ADD). Compounds were assayed against a range of both Gram negative and Gram positive bacteria (see Supplementary Materials S3) including methicillin-resistant Staphylococcus aureus (MRSA) (G+), Escherichia coli (G-), Klebsiella pneumoniae (G-), Acinetobacter baumannii (G-), Pseudomonas aeruginosa (G-) together with two species of fungus (Candida albicans and Cryptococcus neoformans).
(§3) S3. Antimicrobial activity testing methodology
(§4) The compounds submitted to CO-ADD were evaluated in duplicate (n = 2) against seven microorganisms (five bacteria and two fungi) at a concentration of 32 µg/mL in a 384-well, non-binding surface plate (NBS) for each bacterial/fungal strain, keeping the final DMSO concentration to a maximum of 1% DMSO. All bacteria were cultured in cation-adjusted Mueller-Hinton broth (CAMHB) at 37 °C overnight. A sample of each culture was then diluted 40-fold in fresh broth and incubated at 37 °C for 1.5-3 h. The resultant mid-log phase cultures were diluted (CFU/mL measured by OD600), then added to each well of the compound containing plates, giving a cell density of 5x10^5 CFU/mL and a total volume of 50 µL. All the plates were covered and incubated at 37 °C for 18 h without shaking. […] Inhibition of bacterial growth was determined measuring absorbance at 600 nm (OD600) using a Tecan M1000 Pro mon-ochromator plate reader. […]
(§5) 2 h. The absorbance was measured using a Biotek Synergy HTX plate reader. The percentage of growth inhibition was calculated for each well, using negative control (medium only) and positive control (bacteria without inhibitors) on the same plate as the references. The significance of inhibition values was determined by modified Z-scores, calculated using the median and MAD of the samples (no controls) on the same plate. Samples with inhibition value above 80% and Z-score above 2.5 for either replicate (n = 2 on different plates) were classed as actives.
(§6) Colistin and vancomycin were used as positive bacterial inhibitor standards for Gram-negative and Gram-positive bac-teria, respectively. Fluconazole was used as a positive fungal inhibitor standard for C. albicans and C. neoformans. The antibiotics were provided in four concentrations, with two above and two below its MIC value, and plated into the first eight wells of column 23 of the 384-well NBS plates. The quality control (QC) of the assays was determined by the antimicrobial controls and the Z’-factor (using positive and negative controls). Each plate was deemed to fulfil the qual- […]
(§7) full growth inhibition at their highest concentration, and no growth inhibition at their lowest concentration. The seven […]
(§8) test microorganisms were Staphylococcus aureus MRSA (ATCC 43300), Escherichia coli (ATCC 25922), Klebsiella pneu-moniae (ATCC 700603), Acinetobacter baumanii (ATCC19606), Pseudomonas aeruginosa (ATCC 27853), Candida albicans (ATCC 90028) and Cryptococcus neoformans var. grubii (H99; ATCC 208821).
(§9) S4. Anthelmintic activity testing methodology
(§10) Dose-response evaluations were carried out to estimate the half-maximal inhibitory concentrations (IC50 values) for compounds against Haemonchus contortus (Haecon-5 strain) exsheathed third-stage larvae (xL3s). H. contortus were maintained in experimental sheep and procured in accordance with the institutional animal ethics guidelines and the regulations of Australia (permit no. 1714374; University of Melbourne). Immediately prior to use, third-stage larvae (L3s) were exsheathed and sterilised by incubation in 0.15% (v/v) bleach at 38 °C for 20 min, followed by washes in […]

Series [2] deals with A. baumannii (G-) strain ATCC 19606. Kind of series: Antimicrobial growth inhibition (CO-ADD), A. baumannii. It counts as cell-based, Acinetobacter baumannii. The following applies: Acinetobacter baumannii, ATCC19606, read-out: MIC A. baumannii. How it is done:
as §1, §2, §3, §4, §5, §6, §7, §8, §9, §10

In series [3] the test system is P. auruginosa (G-) strain ATCC 27853. Briefly: Antimicrobial growth inhibition (CO-ADD), P. aeruginosa. In kind it is cell-based, Pseudomonas aeruginosa. The procedure: as §1, §2, §3, §4, §5, §6, §7, §8, §9, §10
In series [4] the test system is zebrafish (Danio rerio) larvae at 5 dpf. Briefly: Zebrafish larvae spontaneous, unstimulated swimming bioassay. It counts as in vivo. How it is done: (§11) For the zebrafish bioactivity assay, three experiments were performed on 5 days post fertilization (dpf) zebrafish larvae treated with methanol crude extracts from all four sponge specimens, using total distance moved as an endpoint metric. Spontaneous swimming experiments were performed according to the following protocol: allowing a 2 min acclimatization period in darkness followed by a 5 min darkness swimming period, where total distance moved was measured. Simulated predator response (SPR) experiments were performed involving a 2 min acclimatization period in light conditions, followed by 3 min in light free swimming and a measurement period of 3 mins in dark. Finally, a Larval Photo-motor Response (LPR) experiment was conducted beginning with 2 mins light acclimatization followed by three cycles of alternating photic stimulus (each cycle consisting of 4 min light –4 min dark conditions to assess the profile of the treatment across time, Figure 8.
(§12) Basal behavioral analysis was conducted on zebrafish (Danio rerio) larvae at 5 dpf using an in-house custom-built behavioral analysis system. All assays followed standard protocols as previously described.
(§13) Zebrafish were housed and bred in the AquaCore facility, Monash University, according to standard procedures. Larvae were maintained in E3 media (5mM NaCl, 0.17mM KCl, 0.33 mM CaCl2, 0.33 mM MgSO4, supplemented with 1 x 10 – 5% methylene blue as antimycotic).
(§14) Digital video processing and animal tracking was performed using Ethovision XT ver.16 (Noldus Inc., Wageningen, The Netherlands) using a standardized method as described before.
(§15) All data was averaged across replicate larvae for each treatment and control, respectively, and presented as mean ± SEM. Cumulative distance traveled by larvae was measured by summing the incremental distance moved by each larva between frames of video files. Statistical analysis and data presentation was performed using Prism 8 (GraphPad Software Inc., San Diego, CA, USA). Data sets were tested for outliers and normality of distribution, followed by either one-way or two-way ANOVA testing for significance. […] Where time point data was collected significance was compared for each time domain with that of vehicle controls. Significance was universally set to p < 0.05.

The test system is the same in series [5]. Briefly: Zebrafish larvae simulated predator response (SPR) bioassay. The following applies: 1 nM. It counts as in vivo. How it is done: as §11, §12, §13, §14, §15
Series [6] has the same test system. Briefly: Zebrafish Larval Photo-motor Response (LPR) bioassay. In kind it is in vivo. The conditions noted are these: 1 nM, 10 nM and 100 nM. The procedure: as §11
Basal behavioral analysis was conducted on zebrafish (Danio rerio) larvae at 5 dpf using an in-house custom-built behavioral analysis system. […]
All data was averaged across replicate larvae for each treatment and control, respectively, and presented as mean ± SEM. Cumulative distance traveled by larvae was measured by summing the incremental distance moved by each larva between frames of video files. […]

Series [7] deals with C. neoformans var. grubii strain ATCC 208821. Briefly: Antimicrobial growth inhibition (CO-ADD), C. neoformans. It counts as cell-based. The conditions noted are these: Cryptococcus neoformans, ATCC208821, read-out: MIC C. neoformans.
The next series deals with S. aureus ATCC 25923. Set-up: method as in PMID 8297426. The following applies: cited from earlier work.
[8] abbreviates: 32 µg/mL, duplicate (n = 2) values.

Values after ≈ are worked out from the molar mass of the structure shown. Like-named read-outs stand apart in the source and are kept apart here.

For the molecule `COC1=C(Br)[C@H](O)[C@](O)(CC#N)C=C1Br` [Compound 1, (+)-aeroplysinin-1], the “% inhibition MRSA” value in series [1] (setting [8]) worked out at 96.7%. Also, the “MIC MRSA” value in series [1] (ATCC 43300, MIC = concentration at which growth inhibited by ≥80%, range 0.25−32 µg/mL) was found to be 32 µg/mL. Further, the inhibition at 32 µg/mL was 95.9% in series [1] (Staphylococcus aureus, read-out: % inhibition MRSA, 32 µg/mL, duplicate (n = 2) values); 96.3% in series [1] (Staphylococcus aureus, read-out: mean value of % inhibition against MRSA, 32 µg/mL, mean of duplicates); 10.9% in series [3] (Pseudomonas aeruginosa, ATCC27853, read-out: % inhibition P. aeruginosa, 32 µg/mL, duplicate (n = 2) values). Besides, the minimal inhibitory concentration (MIC) in series [1] (Staphylococcus aureus, read-out: MIC MRSA, ATCC 43300, MIC = concentration at which growth inhibited by ≥80%, range 0.25−32 µg/mL) was less than 32 µg/mL; in series [2], more than 32 µg/mL; in series [3] (Pseudomonas aeruginosa, ATCC27853, read-out: MIC P. aeruginosa), more than 32 µg/mL; in series [7] it was more than 32 µg/mL. For the same molecule, in series [3] (setting [8]), the “% inhibition P. aeruginosa” value stood at 18.2%. Further, in series [4] (1 nM, 10 nM, 100 nM), the “Spontaneous swimming, profile across concentrations” value was “increased hypoactivity with higher concentrations”. Also, the “Spontaneous swimming, total distance moved vs vehicle control” value in series [4] (1 nM, 5 dpf larvae, p < 0.0001) is “significant hyperactivity effects”. Further, the “Spontaneous swimming, mean distance moved” value in series [4] (10 nM and 100 nM, compared with 1 nM) is “reduced mean distance moved”. The “SPR, profile across concentrations” value in series [5] (10 nM, 100 nM) is “increased hypoactivity with higher concentrations”. In series [5] (p < 0.0001), the “SPR, total distance moved vs vehicle control” value is reported as “significant hyperactivity effects”. Also, the “LPR, mean area under the curve across light and dark cycles vs vehicle control” value in series [6] is “reduced hyperactivity at higher concentrations”. Further, in the series with S. aureus ATCC 25923, the “MIC against S. aureus ATCC 25923” value is 25 µg/mL (≈ 73.8 µM).

By MIC is commonly meant the smallest concentration in the dilution series that meets the test's criterion for growth inhibition.

Source of the values: publication PMC9503778, “Targeted Isolation of Antibiotic Brominated Alkaloids from the Marine Sponge Pseudoceratina durissima Using Virtual Screening and Molecular Networking” (Marine Drugs, 2022).
